# Experimental data: patent US7279290B2, “ATM kinase compositions and methods” (St. Jude Children's Research Hospital, priority 2002, dated 2007)
# Key:
# Ser^1981 in ATM = assay: Ser^1981 phosphorylation of ATM in primary fibroblasts after treatment with agents; type: cell-based, human; details: for Phosphorylation of ATM: over one and five hours after exposure
# Description: Another aspect of the present invention provides a method of detecting DNA damage in a cell by identifying the activation state of ATM kinase.
# 293T cells, HeLa cells and 1070SK primary human foreskin fibroblasts (HFF) (>passage 20, ATCC) were cultured in Dulbecco's Modification of Eagle's Medium (DMEM) supplemented with 10% fetal bovine serum (FBS). GM00637 and GM09607 fibroblasts were grown in DMEM containing 15% FBS. GM00536 lymphoblast cells were grown in RPMI supplemented with 10% fetal calf serum. 293T cells were transfected using FUGENE™ (Roche, Indianapolis, Ind.) and HeLa cells, GM00637 and GM09607 with LIPOFECTAMINE™ (INVITROGEN™ Corp., Carlsbad, Calif.). Metabolic labeling was performed by pre-equilibrating cells in phosphate-free media for three hours prior to the addition of 0.5 mCi/ml ^32P orthophosphate (PerkinElmer Life Sciences Inc., Boston, Mass.) for 30 minutes. Inhibition of DNA synthesis and analysis of G2/M checkpoint after irradiation was assessed using well-known methods (e.g., Xu, et al. (2001) Mol. Cell. Biol. 21:3445-3450). Wortmannin was added to samples on ice 15 minutes prior to reactions and 5 μM manganese and 1 μg sonicated calf thymus DNA were present or absent. Proteins were crosslinked by incubating cells in formaldehyde/phosphate-buffered saline (PBS) for 10 minutes at room temperature. Formaldehyde was washed out using PBS containing 100 mM glycine and immunoprecipitation was then performed. Hypotonic swelling was performed for 1 hour in PBS containing 0.45% glucose (w/v) and 1% FBS with the NaCl concentration reduced to either 50 mM or 100 mM. HFF were incubated with chloroquine in DMEM containing 10% FBS for four hours. Prior to an eight hour incubation with Trichostatin A, HFF was grown for 24 hours in DMEM containing 0.1% FBS. […] For immunofluoresence experiments, HFF grown on glass slides were fixed in 50% methanol/50% acetone for two hours at −20° C. Cells were incubated with primary antibodies at 1/1000 (H2AXγ; Upstate, Charlottesville, Va.) and secondary antibodies at 1/500 (Cy3 anti-mouse and FITC anti-rabbit; Jackson ImmunoResearch Laboratories, Inc., West Grove, Pa.) in PBS, 10% FBS for one hour.
# Mammalian cell extracts were prepared in buffer A. Cleared supernatants were immunoprecipitated with anti-FLAG® M2 sepharose or anti-ATM D1611 (Alligood, et al. (2000) Hybridoma 19:317-321) and protein A/G agarose. Beads were washed twice with buffer A and twice with RIPA buffer. Co-immunoprecipitation was performed in buffer B: 50 mM Tris (pH 7.5), 150 mM NaCl, 0.5% TWEEN® 20, 0.2% NP-40, 50 mM NaF, 1 mM AEBSF, and 1x protease inhibitor mixture (Roche, Indianapolis, Ind.).
# Western blotting was performed with anti-FLAG® M5 (Sigma-Aldrich, St. Louis, Mo.), anti-ATM MAT3, anti-GST (Amersham Pharmacia Biotech, Uppsala, Sweden) or anti-6x-His (Sigma-Aldrich, St. Louis, Mo.).
# ATM protein = assay: ATM phosphorylation after chromatin-modifying treatments (immunoblot and immunofluorescence); type: cell-based, human
# Description: Since such a high fraction of cellular ATM becomes phosphorylated so rapidly in the presence of so few DNA strand breaks, it is unlikely that the ATM oligomers could require direct binding to DNA strand breaks for activation and autophosphorylation. Therefore, the introduction of DNA strand breaks may cause a change in the nucleus that activates ATM at a distance from the break itself. As DNA strand breaks introduced by ionizing irradiation rapidly alter topological constraints on DNA (Roti Roti and Wright (1987) Cytometry 8:461-467; Jaberaboansari, et al. (1988) Radiat. Res. 114:94-104; Malyapa, et al. (1996) Int. J. Radiat. Oncol. Biol. Phys. 35:963-973),alterations in some aspect of chromatin structure fit the criteria of being a rapid change and being able to act a distance in the nucleus. Chromatin and chromosome structures can be altered in the absence of DNA breaks by hypotonic conditions (Earnshaw, and Laemmli (1983) J. Cell Biol. 96:84-93; Jeppesen, et al. (1992) Chromosoma 101:322-332), exposure to chloroquine (Krajewski (1995) FEBS Letters 361:149-152; Jensen, et al. (1994) Cancer Res. 54:2959-2963; Snyder (2000) Environ. Mol. Mutagen. 35:13-21), or treatment with histone deaceylase inhibitors (Krajewski (1999) J. Biomol. Struct. Dynam. 16:1097-1106; Yoshida, et al. (1995) BioEssays 17:423-430; Kuo and Allis (1998) BioEssays 20:615-626). […]
# Ser^1981 of ATM = assay: Ser^1981 phosphorylation following irradiation of human diploid fibroblasts; type: cell-based
# Description: Autophosphorylation of Ser^1981 was determined using glutathione-S-transferase (GST) fusion proteins containing various lengths of ATM as substrates of the ATM kinase in in vitro kinase reactions. A polypeptide containing the appropriate serine residue at 1981 was an excellent in vitro substrate, whereas a Ser^1981→Ala mutant was not phosphorylated by ATM whether the read-out was incorporation of radioactive phosphate or binding by the α-Ser^1981-P antibody. […] This concentration of wortmannin inhibits both ATM and DNA-dependent protein kinase (DNA-PK), but not ataxia- and Rad3-related protein (ATR), in vivo (Sarkaria, et al. (1998) Cancer Res. 58:4375-4382). To exclude DNA-PK as a responsible kinase, phosphorylation of Ser^1981 was determined in a cell line lacking DNA-PK activity. The kinetics and levels of IR-induced phosphorylation of Ser^1981 were identical to those in a similar cell line containing DNA-PK activity.
# HeLa cells = assay: Radioprotection assay (colony formation after irradiation); type: cell-based; details: for Average Number of Colonies*: 2 μg/ml chloroquine one hour, washed one hour, 1000 cells plated
# Description: HeLa cells were treated with 2 μg/ml of chloroquine for one hour, washed for one hour, and irradiated at 2 or 6 Gy. Subsequently, 1000 cells were plated and assessed for colony formation.
# HFF = assay: Cell death of HFF during incubation; details: HFF incubated with chloroquine four hours
# Description: 293T cells, HeLa cells and 1070SK primary human foreskin fibroblasts (HFF) (>passage 20, ATCC) were cultured in Dulbecco's Modification of Eagle's Medium (DMEM) supplemented with 10% fetal bovine serum (FBS). GM00637 and GM09607 fibroblasts were grown in DMEM containing 15% FBS. GM00536 lymphoblast cells were grown in RPMI supplemented with 10% fetal calf serum. 293T cells were transfected using FUGENE™ (Roche, Indianapolis, Ind.) and HeLa cells, GM00637 and GM09607 with LIPOFECTAMINE™ (INVITROGEN™ Corp., Carlsbad, Calif.). Metabolic labeling was performed by pre-equilibrating cells in phosphate-free media for three hours prior to the addition of 0.5 mCi/ml ^32P orthophosphate (PerkinElmer Life Sciences Inc., Boston, Mass.) for 30 minutes. Inhibition of DNA synthesis and analysis of G2/M checkpoint after irradiation was assessed using well-known methods (e.g., Xu, et al. (2001) Mol. Cell. Biol. 21:3445-3450). Wortmannin was added to samples on ice 15 minutes prior to reactions and 5 μM manganese and 1 μg sonicated calf thymus DNA were present or absent. Proteins were crosslinked by incubating cells in formaldehyde/phosphate-buffered saline (PBS) for 10 minutes at room temperature. Formaldehyde was washed out using PBS containing 100 mM glycine and immunoprecipitation was then performed. […]
# [1] = one hour following exposure, 2 nM camptothecin, 17 nM etoposide or 0.1% H2O2
compound,measurement,setting,value
CC[C@@]1(O)C(=O)OCc2c1cc1n(c2=O)Cc2cc3ccccc3nc2-1 [camptothecin],Phosphorylation of Ser^1981 in ATM,Ser^1981 in ATM; [1],detected
"CC(/C=C/C(=O)NO)=C\[C@@H](C)C(=O)c1ccc(N(C)C)cc1 [Trichostatin, Trichostatin A]",phosphorylation of ATM protein,ATM protein,induced rapid and diffuse phosphorylation
"COS(C)(=O)=O [MMS, methlymethanesulfonate]",Phosphorylation of Ser^1981 in ATM,"Ser^1981 in ATM; five hours after treatment, compared with one hour",more prominent phosphorylation
C[C@@]1(CO)[C@H](O)CC[C@@]2(C)[C@H]1CC[C@H]1C[C@@H]3C[C@@]12CC[C@]3(O)CO [aphidicolin],Phosphorylation of ATM,Ser^1981 in ATM,Little or no phosphorylation
OO [H2O2],Phosphorylation of Ser^1981 in ATM,Ser^1981 in ATM; [1],detected
COC[C@H]1OC(=O)c2coc3c2[C@@]1(C)C1=C(C3=O)[C@@H]2CCC(=O)[C@@]2(C)C[C@H]1OC(C)=O [wortmannin],concentration effectively inhibiting phosphorylation of Ser^1981,Ser^1981 of ATM,≥ 20 µM
Cc1cn([C@H]2C[C@H](O)[C@@H](CO)O2)c(=O)[nH]c1=O [thymidine],Phosphorylation of ATM,Ser^1981 in ATM,Little or no phosphorylation
CCN(CC)CCCC(C)Nc1ccnc2cc(Cl)ccc12 (stereo not shown) [chloroquine],Average Number of Colonies*,HeLa cells; irradiated at 2 Gy,580
same,Average Number of Colonies*,HeLa cells; irradiated at 6 Gy,129
same,increase in cell survival by treatment prior to irradiation,"HeLa cells; HeLa cells, chloroquine prior to irradiation",30%
same,cell death,HFF,No cell death was observed
same,phosphorylation of ATM protein,ATM protein,induced rapid and diffuse phosphorylation
NC(=O)NO [hydroxyurea],Phosphorylation of ATM,Ser^1981 in ATM,Little or no phosphorylation
